Experimental data as given in patent US10091998B2, “Tetrazolinone compound and use thereof” (SUMITOMO CHEMICAL COMPANY, LIMITED, priority 2013, dated 2018).

Test system: second-instar larvae of diamondback moth (Plutella xylostella)
Test: Test Example 11: diamondback moth mortality on treated cabbage
Assay type: in vivo
Conditions: 120 h, 500 ppm spray on cabbage, 20 mL per cup, 5 days at 25° C.
Protocol: As a test chemical solution used in the present test example, a water dilution (test chemical solution) was prepared so as to contain a predetermined concentration (500 ppm) of any one compound of the present compounds 1, 15, 17, and 55.
The test chemical solution was sprayed over cabbage in three-leaf stage sowed and grown in a polyethylene at a rate of 20 mL per cup. After drying the chemical solution, the stem and leaf portions were cut and disposed in a 50 mL cup. Five (5) heads of second-instar larvae of diamondback moth (Plutella xylostella) were released and then a lid was put on the cup. After storage at 25° C. for 5 days, the number of the dead insects was counted and mortality was calculated by the following equation. Mortality (%)=(number of dead insects/number of tested insects)×100

**Q.** Which mortality at 500 ppm does the source give for `Cc1cccc(-n2nnn(C)c2=O)c1OCc1ccccc1` [Present Compound 1, 1-(2-phenylmethoxy-3-methylphenyl)-4-methyl-1,4-dihydrotetrazol-5-one] here?
**A.** ≥ 80%

**Q.** How did the mortality at 500 ppm turn out when `Cc1ccc(-c2ccc(COc3c(C)cccc3-n3nnn(C)c3=O)c(C)c2)cc1` [Present Compound 15] was run?
**A.** ≥ 80%

**Q.** Which mortality at 500 ppm does the source give for `Cc1cc(-c2ccccc2C)ccc1COc1c(C)cccc1-n1nnn(C)c1=O` [Present Compound 17] here?
**A.** ≥ 80%

**Q.** With `COc1ccccc1-c1csc(COc2c(C)cccc2-n2nnn(C)c2=O)n1` [Present Compound 55, 2-({[1-(4,5-dihydro-4-methyl-5-oxo-1H-tetrazol-1-yl)-3-methylphenyl-2-yl]oxy}methyl)-4-(2-methoxyphenyl)thiazole] as the compound, how does the mortality at 500 ppm read?
**A.** ≥ 80%
